These results are taken from PubChem BioAssay AID179 (DTP/NCI, 2004).

The test system of this test is CEM cells HIV-1 protection, formazan growth assay. As to the kind of experiment: NCI AIDS Antiviral Assay. The note with it: for IC50: measured here: growth of uninfected CEM cells. An outline of the steps:
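Five concentrations of each compound were applied to infected and uninfected human CEM cells. Protection from HIV-1 was judged from growth measured with a soluble formazan assay.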

The EC50 is the midpoint of the concentration-response curve. The IC50 is the concentration needed to halve the response being measured. A low value points to inhibition by little substance.

Each structure is given as a SMILES string. Several values for one entry are separate records, joined by “and”; a condition that tells them apart may be missing. Equal values may be shown once. Activity calls are given as the source filed them.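 Rule for the calls: active = compounds giving half or more protection of infected cells from virus-caused growth loss, again on retest; inactive = the rest.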 Where a SMILES comes first, the peptide text is derived from it.

In the case of `O=C(C=P(c1ccccc1)(c1ccccc1)c1ccccc1)CC(=S)CC(=O)C=P(c1ccccc1)(c1ccccc1)c1ccccc1`, the outcome was inactive.

Regarding `CS/C(=N/N=C/c1ccc2ccccc2n1)SS/C(=N/N=C\c1ccc2ccccc2n1)SC`, the EC50 is more than 200 µM and the IC50 is 178 µM.

On to `Clc1ccc(C2ON2C2CCCCC2)cc1` (centres undefined), for which the result was inactive.

As for `c1ccc2c(c1)OCc1nccn1-2`, the EC50 was more than 200 µM and the half-inhibitory concentration (IC50) turned out to be 97.7 µM.

As for `CC(=O)OCC(OC(C)=O)C(OC(C)=O)C(C=NN(C(C)=O)S(=O)(=O)c1ccc(/C=C2\NC(=O)NC2=O)cc1)OC(C)=O` (centres undefined), the EC50 is more than 200 µM and the IC50 was determined as 97.7 µM.

Turning to `CC(=O)CCC(NC(C)=O)(C(=O)O)C(=O)O`, the EC50 is more than 200 µM and the 50% inhibitory concentration (IC50) was more than 200 µM.

Turning to `CCCCCCCCCCOC(=O)NCCC`, the result was inactive.

For `CC1NC(=O)CNC(=O)CNC(=O)C(Cc2ccc(O)cc2)NC(=O)C(C(C)C)NC(=O)C(C)NC1=O` (centres undefined) (cyclo(GGAAVY); configuration not given here), the result was inactive.

As to `CC1CC(=O)c2c(ccc3c2C(=O)c2cccc(O)c2C3=O)C1` (centres undefined), the result was inactive.

On to `CC(=O)OC1(C)C=Cc2ccccc2/C1=N/S(=O)(=O)c1ccccc1` (centres undefined), for which the EC50 was more than 200 µM and the 50% inhibitory concentration (IC50) came to 31.6 µM.

As for `Cc1nc2c(=O)n(C)c(=O)n(C)c2nc1CCC(=O)O`, the EC50 is more than 200 µM and the IC50 was more than 200 µM.

As to `CCN(CC)CCn1c2ccccc2c(=O)c2c(OC)ccc(OC)c21`, the result was inactive.

In the case of `c1ccc(C2N=C(c3ccccn3)C(c3ccccn3)=NC2c2ccccc2)cc1` (centres undefined), the EC50 is more than 9.77 µM and the half-inhibitory concentration (IC50) is more than 9.77 µM.

In the case of `N#CC(C#N)=C(N)/C(C#N)=C/c1cc(O)c(O)c(Br)c1`, the EC50 is more than 77.6 µM and the concentration for half-maximal inhibition (IC50) is more than 77.6 µM.

As for `OCC(O)C1OC(c2ccco2)OC(CO)C1O` (centres undefined), the EC50 was more than 200 µM and the IC50 was more than 200 µM.

For the molecule `C1CCCN(NC2=NCCO2)CC1`, the EC50 was 93.3 µM and the IC50 was determined as 1000 µM.

With `CCCCc1c2c(nc3c1CC/C(=C\c1ccccc1)C3=O)CCCC2`, the EC50 is more than 4.17 µM and the half-maximal inhibitory concentration (IC50) was found to be 3.31 µM.

Regarding `O=Cc1ccc(-c2cccc([N+](=O)[O-])c2)s1`, the EC50 was more than 200 µM and the IC50 came out at 166 µM.

In the case of `OC1CN=C2c3ccccc3C(O)(c3ccc(Cl)cc3)N2C1` (centres undefined), the EC50 was more than 200 µM and the IC50 came out at 44.7 µM.

In the case of `CCCCCOC(=S)SSSC(=S)OCCCCC`, the EC50 was more than 200 µM and the concentration for half-maximal inhibition (IC50) came to 7.76 µM.

Take `O=C(O)c1cccc(S(=O)(=O)NN2C(=O)CSC2c2c(O)ccc3ccccc23)c1` (centres undefined): the EC50 was more than 200 µM and the IC50 is 29.5 µM.

Regarding `CCC(=O)O[C@@H]1C2C(OC(C)=O)C34COC(C)([C@@H]3C3C(C[C@]3(C)OC(C)=O)[C@@H](OC(=O)c3ccccc3)C4=O)[C@H](OC(C)=O)[C@@]2(OC(C)=O)C[C@@H]1C` (some centres undefined), the EC50 is more than 10 µM and the IC50 is more than 10 µM.

Regarding `CCN(CCCCOC(=O)c1ccc(OC)c(OC)c1)C(C)Cc1ccc(OC)cc1` (centres undefined), the EC50 was more than 200 µM and the IC50 was 102 µM.

As to `O=C(O)c1cccc(Nc2c(C(=O)O)cccc2[N+](=O)[O-])c1`, the EC50 is more than 200 µM and the half-maximal inhibitory concentration (IC50) amounted to 6.31 µM.

Regarding `Cc1ccnc2c1ccc1nc3ccccc3n12`, the EC50 is more than 200 µM and the half-maximal inhibitory concentration (IC50) is more than 200 µM.

Consider `Cc1cc(C)cc(NC(=O)CCC(=O)C2CCC/C2=N\NC(=O)C(=O)NN)c1` (centres undefined), for which the EC50 was more than 67.6 µM and the IC50 was more than 67.6 µM.

Consider `Cc1c2ccc(Cl)cc2nc2ccc(OCCNC(=O)[C@@H](N)CCCN=C(N)N)cc12`, for which the EC50 was more than 200 µM and the 50% inhibitory concentration (IC50) amounted to 30.9 µM.

In the case of `COc1ccc2cc3n(c2c1)CCc1cc(OC)c(OC)cc1-3`, the result was inactive.

On to `O=C1CC2C=C(S(=O)(=O)c3ccccc3)C1N(Cc1ccccc1)C2=O` (centres undefined), for which the result was inactive.

As for `CCOc1ccc(NC(=O)CC2SC(=Nc3ccc(C)cc3)NC2=O)cc1` (centres undefined), the EC50 is more than 67.6 µM and the IC50 is more than 67.6 µM.

As to `CC[C@@]12CCC(=S)N(CCSc3ccccc3)[C@@H]1c1c(n(S(=O)(=O)c3ccc(OC)cc3)c3ccccc13)CC2`, the EC50 was more than 200 µM and the 50% inhibitory concentration (IC50) was more than 200 µM.

Regarding `Nc1nc(Cl)cc(NCC2(O)CC2)n1`, the EC50 was more than 200 µM and the IC50 is more than 200 µM.

On to `CCCc1cc(=O)oc2c(C=O)c(O)cc(O)c12`, for which the EC50 is more than 200 µM and the half-inhibitory concentration (IC50) was found to be 63.1 µM.

On to `O=C(c1ccc(Cl)cc1)N(C(=S)N1CCN(c2ccccn2)CC1)c1ccccc1`, for which the EC50 is more than 30.9 µM and the IC50 is more than 30.9 µM.

As for `O=C(c1ccccc1)C1(c2ccccc2)SSC1(C(=O)c1ccccc1)c1ccccc1` (centres undefined), the EC50 was more than 100 µM and the IC50 was more than 100 µM.

In the case of `Cc1cn(C2CC(O[Si](C)(C)C(C)(C)C)C(CN(OC(=O)Oc3ccccc3)C(=O)Oc3ccccc3)O2)c(=O)[nH]c1=O` (centres undefined), the EC50 is more than 200 µM and the IC50 turned out to be 10.2 µM.

As for `Cc1ccc(S(=O)(=O)N(/N=C/C=C/c2ccccc2)c2nnc(-c3ccccc3)c(-c3ccccc3)n2)cc1`, the EC50 was more than 18.6 µM and the IC50 came to 10 µM.

For the molecule `NCCCn1c(Cl)nc2ccccc21`, the EC50 is more than 200 µM and the IC50 was more than 200 µM.

For `C(=C\c1cnc2ccccc2n1)/c1ccc2c(c1)OCO2`, the EC50 is more than 200 µM and the IC50 is more than 200 µM.

As for `NC(=O)c1ccccc1NC(=O)C(=O)Nc1n[nH]c(N)n1`, the EC50 was more than 871 µM and the IC50 was more than 871 µM.

For the molecule `N#Cc1cccc(CSc2ncnc3nc[nH]c23)c1`, the EC50 is more than 200 µM and the IC50 is 81.3 µM.

Regarding `COC(=O)[C@]12CCC(C)[C@H](C)[C@H]1C1=CCC3[C@@]4(C)CC[C@H](OC(C)=O)C(C)(C)C4CC[C@@]3(C)C1(C)C(O)C2` (some centres undefined), the outcome was inactive.

As to `CN(C)c1ccc(C=C2C(=O)c3ccccc3C2=O)cc1`, the result was inactive.

Regarding `COc1ccc(/C=N/NC(=O)c2ccccc2Nc2ccccc2C(=O)N/N=C/c2ccc(OC)cc2)cc1`, the EC50 is more than 102 µM and the IC50 turned out to be 85.1 µM.

In the case of `CN(C)C(=S)SSC(=S)N(C)C`, the EC50 is more than 200 µM; the result was inactive; the concentration for half-maximal inhibition (IC50) is 5.01 µM and 1.07 µM.

Consider `COc1ccc2c(c1)C(C)(C)Oc1cc3oc(C(=O)O)cc(=O)c3cc1-2`, for which the EC50 was more than 355 µM and the concentration for half-maximal inhibition (IC50) was more than 355 µM.

Regarding `N=C(N)SCCC(=O)CCSC(=N)N`, the EC50 was more than 85.1 µM and the half-maximal inhibitory concentration (IC50) amounted to 63.1 µM.

Consider `CC1C(O)=C(O)c2ccccc2N1O` (centres undefined), for which the EC50 is more than 490 µM and the IC50 was determined as 87.1 µM.

On to `COc1ccc(Cc2c(=O)[nH]nc3ccccc23)cc1`, for which the EC50 was more than 70.8 µM and the IC50 is more than 70.8 µM.

`NC(=O)CC(NC(=O)c1ccccc1SC(=O)CCCC[n+]1ccccc1)C(N)=O` (centres undefined): the EC50 was 32.4 µM and the IC50 was more than 200 µM.

Consider `CCN(CC)CC(=O)Nc1cc(Cl)ccc1C`, for which the EC50 is more than 200 µM and the IC50 was more than 200 µM.

In the case of `CC1CC/C(=C\c2ccc(N(C)C)cc2)C2=C1C(c1ccc(N(C)C)cc1)NC(=S)N2` (centres undefined), the EC50 is more than 100 µM and the 50% inhibitory concentration (IC50) was more than 100 µM.

Regarding `O=C1[C@@H](O)[C@@H]2CCCC[C@@]23CCCN13`, the EC50 was more than 200 µM and the half-inhibitory concentration (IC50) was more than 200 µM.

For `CN1CCC(O)C(CNC23CC4CC(CC(C4)C2)C3)C1` (centres undefined), the concentration giving a half-maximal response (EC50) was 97.7 µM and the IC50 came to 178 µM.

Consider `CCOC(=O)/C(Cc1cc(=O)n(C)c2ccccc12)=N\Nc1ccccc1`, for which the EC50 was more than 200 µM and the IC50 is more than 200 µM.

Regarding `Cc1cn([C@H]2C(CO)[C@@H](CO)C2(C)C)c(=O)[nH]c1=O` (some centres undefined), the EC50 is more than 933 µM and the IC50 is more than 933 µM.

Turning to `OC(C(c1ccccc1)c1ccccn1)(C(F)(F)F)C(F)(F)F` (centres undefined), the EC50 is more than 200 µM and the IC50 is more than 200 µM.

As for `CCn1cnc2c(NC(C)=O)ncnc21`, the EC50 was more than 200 µM and the IC50 was more than 200 µM.

Turning to `CCc1nnc2n1N=C(c1ccc(-c3ccccc3)cc1)CS2`, the EC50 is more than 200 µM and the IC50 was 11.5 µM.

As to `Cc1ccc(N=Nc2c(S(=O)(=O)O)cc3cc(NC(=O)Nc4ccc5c(O)c(N=Nc6ccc7cc(S(=O)(=O)O)ccc7c6)c(S(=O)(=O)O)cc5c4)ccc3c2O)cc1`, the outcome was active.

For the molecule `CC(=O)O[C@H]1CCC2[C@@H]3CCC4=C(O)C(=O)C(C#N)C[C@]4(C)C3CC[C@@]21C` (some centres undefined), the outcome was inactive.

As for `O=C(c1ccccc1)c1c(O)c2ccccc2oc1=O`, the result was inactive.

As for `O=C1NC(=S)S/C1=C/c1ccco1`, the EC50 was more than 123 µM and the 50% inhibitory concentration (IC50) was found to be 72.4 µM.

As for `Cc1nc2ccc(S(=O)(=O)Nc3ccccn3)cc2c(=O)n1NS(=O)(=O)c1ccccn1`, the EC50 was more than 200 µM and the IC50 was more than 200 µM.

For `Cn1cnc([N+](=O)[O-])c1Sc1nc2cc(Cl)c(F)cc2[nH]1`, the EC50 was more than 8.32 µM and the concentration for half-maximal inhibition (IC50) came to 3.09 µM.

For `CC12ON=C(c3ccccc3)N1C=CN1C(c3ccccc3)=NOC12` (centres undefined), the EC50 was more than 200 µM and the IC50 was more than 200 µM.

Turning to `CC(Nc1ccc(Cl)c(Cl)c1)c1ccncc1` (centres undefined), the EC50 was more than 200 µM and the IC50 is 28.8 µM.

For the molecule `CCCCCCCCCCNC(=S)OC`, the outcome was inactive.

For `Cc1cn(C2O[C@@H]3CN(O)[C@H](C)[C@]3(O)C2O)c(=O)[nH]c1=O` (some centres undefined), the EC50 is more than 200 µM and the concentration for half-maximal inhibition (IC50) is more than 200 µM.

For `CC(=O)O[C@@]12[C@@H]3O[C@@]4(O)C[C@]5(C)[C@H]6C[C@@](C(C)C)(O[C@H]5c5ccoc5)O[C@H]1[C@]6(C4)O[C@]2(O)C(C)=CC3(C)C`, the EC50 is more than 100 µM and the IC50 turned out to be 52.5 µM.

Regarding `CC(=O)Oc1ccc(/C=C/C(=O)O[C@@H](C(=O)O)[C@@H](OC(=O)/C=C/c2ccc(OC(C)=O)c(OC(C)=O)c2)C(=O)O)cc1OC(C)=O`, the concentration for a half-maximal effect (EC50) was more than 30.2 µM and the IC50 is more than 30.2 µM.
